# In US20130303509A1, “NAMPT INHIBITORS” (AbbVie Inc., priority 2012, published 2013):
# Tested on: PC3 cells
# Assay: NAMPT Cell Proliferation Assay
# Format: cell-based
# Settings: Homo sapiens, PC-3, 120 h, 5 days incubation, cell viability by Cell Titer Glo
# How it was run: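 Five-day CellTiter-Glo viability readout in PC3 cells grown in RPMI/10% heat-inactivated FBS. Compounds added after overnight attachment as a 10-fold dilution series, […]. Percent inhibition fitted to sigmoidal dose-response to derive IC50.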
row,Structure (SMILES),IC50 [µM]
1,"O=C(Nc1ccc(C2CCN(C(=O)C3CCC(F)(F)CC3)CC2)cc1)C1CN(c2ccnnc2)C1 [Example 560, N-(4-{1-[(4,4-difluorocyclohexyl)carbonyl]piperidin-4-yl}phenyl)-1-(pyridazin-4-yl)azetidine-3-carboxamide]",0.00585
2,"O=C(Nc1ccc(C2CCN(C(=O)Cc3ccc(OC(F)(F)F)cc3)CC2)cc1)C1CN(c2ccnnc2)C1 [Example 561, 1-(pyridazin-4-yl)-N-[4-(1-{[4-(trifluoromethoxy)phenyl]acetyl}piperidin-4-yl)phenyl]azetidine-3-carboxamide]",0.0622
3,"O=C(Nc1ccc(C2CCN(C(=O)Cc3ccc(C(F)(F)F)cc3)CC2)cc1)C1CN(c2ccnnc2)C1 [Example 563, 1-(pyridazin-4-yl)-N-[4-(1-{[4-(trifluoromethyl)phenyl]acetyl}piperidin-4-yl)phenyl]azetidine-3-carboxamide]",0.0242
4,"CC(C)(C)c1ccc(C(=O)N2CCC(S(=O)(=O)c3ccc(NC(=O)C4CN(c5cccnn5)C4)cc3)CC2)cc1 [Example 565, N-(4-{[1-(4-tert-butylbenzoyl)piperidin-4-yl]sulfonyl}phenyl)-1-(pyridazin-3-yl)azetidine-3-carboxamide]",0.0741
5,"COc1ccc(C(=O)N2CCC(S(=O)(=O)c3ccc(NC(=O)C4CN(c5cccnn5)C4)cc3)CC2)cc1 [Example 566, N-(4-{[1-(4-methoxybenzoyl)piperidin-4-yl]sulfonyl}phenyl)-1-(pyridazin-3-yl)azetidine-3-carboxamide]",0.0822
6,"O=C(Nc1ccc(S(=O)(=O)C2CCN(C(=O)CC3CC3)CC2)cc1)C1CN(c2cccnn2)C1 [Example 569, N-(4-{[1-(cyclopropylacetyl)piperidin-4-yl]sulfonyl}phenyl)-1-(pyridazin-3-yl)azetidine-3-carboxamide]",0.207
7,"COc1ccccc1C(=O)N1CCC(S(=O)(=O)c2ccc(NC(=O)C3CN(c4cccnn4)C3)cc2)CC1 [Example 570, N-(4-{[1-(2-methoxybenzoyl)piperidin-4-yl]sulfonyl}phenyl)-1-(pyridazin-3-yl)azetidine-3-carboxamide]",0.631
8,"CC[C@H](C(=O)N1CCC(S(=O)(=O)c2ccc(NC(=O)C3CN(c4cccnn4)C3)cc2)CC1)c1ccccc1 [Example 571, N-[4-({1-[(2S)-2-phenylbutanoyl]piperidin-4-yl}sulfonyl)phenyl]-1-(pyridazin-3-yl)azetidine-3-carboxamide]",0.118
9,"CC(C)c1ccc(C(=O)N2CCC(S(=O)(=O)c3ccc(NC(=O)C4CN(c5cccnn5)C4)cc3)CC2)cc1 [Example 572, N-[4-({1-[4-(propan-2-yl)benzoyl]piperidin-4-yl}sulfonyl)phenyl]-1-(pyridazin-3-yl)azetidine-3-carboxamide]",0.0598
10,"O=C(Nc1ccc(S(=O)(=O)C2CCN(C(=O)c3ccc(Cl)cc3)CC2)cc1)C1CN(c2cccnn2)C1 [Example 573, N-(4-{[1-(4-chlorobenzoyl)piperidin-4-yl]sulfonyl}phenyl)-1-(pyridazin-3-yl)azetidine-3-carboxamide]",0.0819
11,"O=C(Nc1ccc(S(=O)(=O)C2CCN(C(=O)c3ccccc3F)CC2)cc1)C1CN(c2cccnn2)C1 [Example 577, N-(4-{[1-(2-fluorobenzoyl)piperidin-4-yl]sulfonyl}phenyl)-1-(pyridazin-3-yl)azetidine-3-carboxamide]",0.093
12,"Cc1ccccc1C(=O)N1CCC(S(=O)(=O)c2ccc(NC(=O)C3CN(c4cccnn4)C3)cc2)CC1 [Example 578, N-(4-{[1-(2-methylbenzoyl)piperidin-4-yl]sulfonyl}phenyl)-1-(pyridazin-3-yl)azetidine-3-carboxamide]",0.0887
13,"Cc1cccc(C(=O)N2CCC(S(=O)(=O)c3ccc(NC(=O)C4CN(c5cccnn5)C4)cc3)CC2)c1 [Example 580, N-(4-{[1-(3-methylbenzoyl)piperidin-4-yl]sulfonyl}phenyl)-1-(pyridazin-3-yl)azetidine-3-carboxamide]",0.078
14,"O=C(Nc1ccc(S(=O)(=O)C2CCN(C(=O)Cc3cccc(F)c3)CC2)cc1)C1CN(c2cccnn2)C1 [Example 582, N-[4-({1-[(3-fluorophenyl)acetyl]piperidin-4-yl}sulfonyl)phenyl]-1-(pyridazin-3-yl)azetidine-3-carboxamide]",0.627

# The remaining molecules from weak to strong by IC50, led by results:
row,IC50 [µM],Structure (SMILES)
1,0.269,"O=C(Nc1ccc(S(=O)(=O)C2CCN(C(=O)CCC(F)(F)F)CC2)cc1)C1CN(c2cccnn2)C1 [Example 575, 1-(pyridazin-3-yl)-N-(4-{[1-(4,4,4-trifluorobutanoyl)piperidin-4-yl]sulfonyl}phenyl)azetidine-3-carboxamide]"
2,0.267,"O=C(Nc1ccc(S(=O)(=O)C2CCN(C(=O)Cc3ccc(F)cc3)CC2)cc1)C1CN(c2cccnn2)C1 [Example 579, N-[4-({1-[(4-fluorophenyl)acetyl]piperidin-4-yl}sulfonyl)phenyl]-1-(pyridazin-3-yl)azetidine-3-carboxamide]"
3,0.0848,"O=C(Nc1ccc(S(=O)(=O)C2CCN(C(=O)c3cc(F)ccc3F)CC2)cc1)C1CN(c2cccnn2)C1 [Example 576, N-(4-{[1-(2,5-difluorobenzoyl)piperidin-4-yl]sulfonyl}phenyl)-1-(pyridazin-3-yl)azetidine-3-carboxamide]"
4,0.0807,"Cc1cccc(C(=O)N2CCC(S(=O)(=O)c3ccc(NC(=O)C4CN(c5cccnn5)C4)cc3)CC2)c1C [Example 581, N-(4-{[1-(2,3-dimethylbenzoyl)piperidin-4-yl]sulfonyl}phenyl)-1-(pyridazin-3-yl)azetidine-3-carboxamide]"
5,0.0792,"O=C(Nc1ccc(S(=O)(=O)C2CCN(C(=O)c3cccc(Cl)c3)CC2)cc1)C1CN(c2cccnn2)C1 [Example 564, N-(4-{[1-(3-chlorobenzoyl)piperidin-4-yl]sulfonyl}phenyl)-1-(pyridazin-3-yl)azetidine-3-carboxamide]"
6,0.0765,"Cc1ccc(C(=O)N2CCC(S(=O)(=O)c3ccc(NC(=O)C4CN(c5cccnn5)C4)cc3)CC2)cc1 [Example 567, N-(4-{[1-(4-methylbenzoyl)piperidin-4-yl]sulfonyl}phenyl)-1-(pyridazin-3-yl)azetidine-3-carboxamide]"
7,0.0553,"O=C(Nc1ccc(S(=O)(=O)C2CCN(C(=O)c3ccccc3)CC2)cc1)C1CN(c2cccnn2)C1 [Example 574, N-{4-[(1-benzoylpiperidin-4-yl)sulfonyl]phenyl}-1-(pyridazin-3-yl)azetidine-3-carboxamide]"
8,0.0482,"O=C(Nc1ccc(S(=O)(=O)C2CCN(C(=O)C3CCCCC3)CC2)cc1)C1CN(c2cccnn2)C1 [Example 568, N-(4-{[1-(cyclohexylcarbonyl)piperidin-4-yl]sulfonyl}phenyl)-1-(pyridazin-3-yl)azetidine-3-carboxamide]"
9,0.00945,"O=C(Nc1ccc(C2CCN(C(=O)c3cccc(OC(F)(F)F)c3)CC2)cc1)C1CN(c2ccnnc2)C1 [Example 562, 1-(pyridazin-4-yl)-N-(4-{1-[3-(trifluoromethoxy)benzoyl]piperidin-4-yl}phenyl)azetidine-3-carboxamide]"
10,0.00133,"CC(C)(C)C(=O)N1CCC(c2ccc(NC(=O)C3CN(c4ccnnc4)C3)cc2)CC1 [Example 559, N-{4-[1-(2,2-dimethylpropanoyl)piperidin-4-yl]phenyl}-1-(pyridazin-4-yl)azetidine-3-carboxamide]"
